# Reference: patent US4451485A, “Treatment of cardio-vascular diseases with 3-(2,2,2-trimethylhydrazinium) propionate dihydrate” (Institu Organicheskogo Sinteza Akademii Nauk Latviiskoi SSR, priority 1981, dated 1984)
# Tests used:
# in vivo = type: in vivo
# [1] = Vessel wall irritation and allergenic capacity; type: in vivo
# [2] = Aconitine arrhythmia in rats after repeated peroral administration; type: in vivo, white rats
# Protocol: The antiarrhythmic activity was studied in experiments on white rats of both sexes with a mass of 190 to 230 g narcotized by urethane. An ECG was recorded for these animals. Into the femoral vein of the rats, aconitine was introduced at a constant rate and its arrhythmogenic and lethal doses were determined along with their variation under the protective effect of the preparation according to the present invention.
# [3] = Clinical study in patients with ischemic heart disease, peroral, 4 weeks; type: in vivo, men and women (patients with IHD); settings: for hemodynamic impact: before treatment 14.6 + 1.2; for pulse pressure: before treatment 47.6 + 0.6; for isometric contraction: before treatment 53 + 2; for asynchron. contraction: before treatment 56 + 2; for distolic pressure: before treatment 68.2 + 0.6; for heart rate: before treatment 72.3 + 1.5; for average dynamic pressure: before treatment 89.7 + 1.2; for tension period: before treatment 109 + 4; for lateral systolic pressure: before treatment 115.8 + 0.5; for final systolic pressure: before treatment 130.4 + 2.0; for expulsion phase: before treatment 222 + 4; for rate of heart relaxation: before treatment 250 + 9; for volume of heart ejection: before treatment 315 + 15; for diastol.: before treatment 499 + 14; for involution period: before treatment 830 + 26; for rate of pressure raise: before treatment 1,188 + 30
# Source text: The following hemodynamic parameters were studied: rate of the heart's beat (RHB), electrocardiogram (ECG), all types of arterial pressure with the curve recording on a Mechanocardiograph 063 (Savitsky's model), beat ejection according to the Wremser-Ranke method, speed of pulse wave propagation, phase analysis of the left ventricle systole on an instrument Mingograph M-34, as well as amplitude time parameters (volume rate of ejection VRE, speed of pressure growth (SPG), rate of heart relaxation (RHR)).
# For evaluation of contraction properties of myocardium separately during its systolic and diastolic periods of contraction there were used amplitude-time characteristics rate of heart ejection (RHE), rate of pressure rise (RPR) and rate of heart relaxation (RHR).
# The rate of heart ejection (RHE) is determined by the formula: (BV6/E), wherein BV--beat volume in ml, E--time of the expulsion phase in seconds.
# The rate of pressure rise is determined by the formula: [formula] wherein DP--diastolic pressure in mm, Hg, 5--conventional value of the final diastolic pressure in the aorta, IC--isometric contraction. RPR characterized contractive properties of the myocardium during the period of closed valves and its ability to rapidly surpass the value of pressure in the aorta for opening of the aortic valves.
# The rate of heart relaxation (RHR) characterizes activity of the myocardium at the moment of diastole and is determined by the formula [formula] wherein SP--systolic pressure in the brachial artery in mm Hg, 5--conventional value of the final diastolic pressure in the aorta, D--duration of the diastolic period in seconds.
# [4] = Strophanthin arrhythmia in guinea pigs (450 μg/kg); type: in vivo
# Protocol: As the third model of arrhythmia, there was used strophanthin arrhythmia in guinea pigs. […] Against the background of arrhythmia the test preparations were administered intravenously.
# [5] = Coronary circulation and hemodynamics in narcotized cats; type: in vivo
# Protocol: In acute experiments on narcotized cats with a mass of from 2.9 to 4.1 kg under artificial respiration, arterial pressure was recorded in the common carotide artery, central venous pressure in the right auricle, volume rate of blood flow in the ascending aortic arch and volume rate of the coronary blood flow. At the same time, there was recorded the content of oxyhemoglobin in venous coronary blood.
# salmoneallae = assay: Mutagenous activity on salmonellae; settings: dihydrate
structure (smiles),measurement,setting,value
"C[N+](C)(C)NCCC(=O)[O-] [3-(2,2,2-trimethylhydrazinium)propionate]",LD50,"in vivo; mouse, in vivo, ip, read-out: Acute toxicity, LD50",7850 mg/kg
same,Toxicity lower than that of carbocromene,in vivo; vs carbocromene,12 times
same,Irritation of vessel walls,[1]; intravenous,does not cause irritation of vessel walls
same,Allergic responses,"[1]; intravenous and peroral, single or up to 30 days",nor does it cause allergic responses
same,"Aconitine dose variation, arrhythmogenic","[2]; 25 mg/kg perorally, 1 week",38.7%
same,"Aconitine dose variation, lethal","[2]; 25 mg/kg perorally, 1 week",27.6%
same,"Aconitine dose variation, arrhythmogenic","[2]; 25 mg/kg perorally, 2 weeks",42.26%
same,"Aconitine dose variation, lethal","[2]; 25 mg/kg perorally, 2 weeks",24.7%
same,"Aconitine dose variation, arrhythmogenic","[2]; 100 mg/kg perorally, 1 week",55.6%
same,"Aconitine dose variation, lethal","[2]; 100 mg/kg perorally, 1 week",16.2%
same,"Aconitine dose variation, arrhythmogenic","[2]; 100 mg/kg perorally, 2 weeks",34.6%
same,"Aconitine dose variation, lethal","[2]; 100 mg/kg perorally, 2 weeks",9.7%
same,Protective effect against aconitine,[2]; peroral,pronounced protective effect
same,hemodynamic impact,[3]; 1st week,18.2 + 1.0
same,pulse pressure,[3]; 1st week,46.5 + 1.1
same,isometric contraction,[3]; 1st week,49 + 3 millisec.
same,asynchron. contraction,[3]; 1st week,55 + 4
same,distolic pressure,[3]; 1st week,69.9 + 1.3
same,heart rate,[3]; 1st week,67.8 + 1.8 beat/min
same,average dynamic pressure,[3]; 1st week,90.6 + 0.7
same,tension period,[3]; 1st week,104 + 2 milliseconds
same,lateral systolic pressure,[3]; 1st week,116.4 + 2.1
same,final systolic pressure,[3]; 1st week,134.6 + 1.6 mm/Hg
same,expulsion phase,[3]; 1st week,225 + 2 milliseconds
same,rate of heart relaxation,[3]; 1st week,238 + 10 mm Hg/sec
same,volume of heart ejection,[3]; 1st week,320 + 23 ml/sec
same,diastol.,[3]; 1st week,543 + 21 milliseconds
same,involution period,[3]; 1st week,873 + 33
same,rate of pressure raise,[3]; 1st week,"1,326 + 45 mm Hg/sec"
same,hemodynamic impact,[3]; 2nd week,24.6 + 0.7
same,pulse pressure,[3]; 2nd week,48.6 + 1.6
same,isometric contraction,[3]; 2nd week,46 + 4 millisec.
same,asynchron. contraction,[3]; 2nd week,54 + 2
same,distolic pressure,[3]; 2nd week,70.3 + 0.9
same,heart rate,[3]; 2nd week,64.3 + 1.3 beat/min
same,average dynamic pressure,[3]; 2nd week,91.2 + 1.2
same,tension period,[3]; 2nd week,100 + 4 milliseconds
same,lateral systolic pressure,[3]; 2nd week,118.9 + 1.7
same,final systolic pressure,[3]; 2nd week,143.5 + 1.8 mm/Hg
same,expulsion phase,[3]; 2nd week,230 + 3 milliseconds
same,rate of heart relaxation,[3]; 2nd week,229 + 8 mm Hg/sec
same,volume of heart ejection,[3]; 2nd week,322 + 13 ml/sec
same,diastol.,[3]; 2nd week,603 + 21 milliseconds
same,involution period,[3]; 2nd week,933 + 42
same,rate of pressure raise,[3]; 2nd week,"1,473 + 130 mm Hg/sec"
same,hemodynamic impact,[3]; 3rd week,24.9 + 1.5
same,pulse pressure,[3]; 3rd week,47.8 + 1.4
same,isometric contraction,[3]; 3rd week,43 + 2 millisec.
same,asynchron. contraction,[3]; 3rd week,56 + 4
same,distolic pressure,[3]; 3rd week,72.3 + 1.4
same,heart rate,[3]; 3rd week,60.1 + 1.6 beat/min
same,average dynamic pressure,[3]; 3rd week,92.0 + 1.8
same,tension period,[3]; 3rd week,99 + 3 milliseconds
same,lateral systolic pressure,[3]; 3rd week,120.1 + 1.4
same,final systolic pressure,[3]; 3rd week,145.0 + 2.4 mm/Hg
same,expulsion phase,[3]; 3rd week,232 + 4 milliseconds
same,rate of heart relaxation,[3]; 3rd week,209 + 8 mm Hg/sec
same,volume of heart ejection,[3]; 3rd week,374 + 14 ml/sec
same,diastol.,[3]; 3rd week,669 + 14 milliseconds
same,involution period,[3]; 3rd week,1000 + 42
same,rate of pressure raise,[3]; 3rd week,"1,581 + 54 mm Hg/sec"
same,hemodynamic impact,[3]; 4th week,25.0 + 0.7
same,pulse pressure,[3]; 4th week,53.6 + 1.2
same,isometric contraction,[3]; 4th week,33 + 2 millisec.
same,asynchron. contraction,[3]; 4th week,55 + 3
same,distolic pressure,[3]; 4th week,72.0 + 1.8
same,heart rate,[3]; 4th week,62.2 + 1.4 beat/min
same,average dynamic pressure,[3]; 4th week,92.2 + 1.0
same,tension period,[3]; 4th week,88 + 2 milliseconds
same,lateral systolic pressure,[3]; 4th week,125.6 + 0.7
same,final systolic pressure,[3]; 4th week,150.6 + 2.7 mm/Hg
same,expulsion phase,[3]; 4th week,235 + 3 milliseconds
same,rate of heart relaxation,[3]; 4th week,226 + 12 mm Hg/sec
same,volume of heart ejection,[3]; 4th week,357 + 17 ml/sec
same,diastol.,[3]; 4th week,642 + 14 milliseconds
same,involution period,[3]; 4th week,965 + 21
same,rate of pressure raise,[3]; 4th week,"2,030 + 68 mm Hg/sec"
same,Arterial pressure,[3]; peroral,growth of all types of AP
same,Electrocardiographic findings,[3]; peroral,"slight decrease of the rate of the heart's beat, disappearance of auricular and ventricular extrasystoles, reinversion of the T ripple and increase of its positive amplitude"
same,Phase analysis of the left ventricle,"[3]; peroral, during the treatment","the involution period T was definitely increased, the phase of expulsion E was reduced, the period of tension PT shortened"
same,Improvement of patients' state,"[3]; peroral, first week",considerable improvement of the patients' state of health
same,ED50,"[4]; Cavia porcellus, intravenous, read-out: ED50, Strophanthin arrhythmia in guinea pigs",7.8 ± 2.3 mg/kg
same,"Antiarrhythmic index LD50/ED50, Strophanthin arrhythmia in guinea pigs","[4]; guinea pig, in vivo",568
same,Duration for which Strophanthin-induced arrhythmia is cut short / ECG improved,[4]; intravenous,5 to 20 min
same,Change of arterial pressure,[5]; 2 mg/kg,0 + -5%
same,Change of central venous pressure,[5]; 2 mg/kg,0%
same,Change of heart output,[5]; 2 mg/kg,0 + +5%
same,Increase duration,[5]; 2 mg/kg,20 min
same,"Volume rate, percent of increase",[5]; 2 mg/kg,15%
same,Change of central venous pressure,[5]; 10 mg/kg,-5%
same,Change of heart output,[5]; 10 mg/kg,+5 - 10%
same,Increase duration,[5]; 10 mg/kg,45 min
same,"Volume rate, percent of increase",[5]; 10 mg/kg,40%
same,Change of arterial pressure,[5]; 25 mg/kg,-8 - +5%
same,Change of central venous pressure,[5]; 25 mg/kg,-10%
same,Change of heart output,[5]; 25 mg/kg,+10 - 20%
same,Increase duration,[5]; 25 mg/kg,70 min
same,"Volume rate, percent of increase",[5]; 25 mg/kg,55%
same,Therapeutical index higher than carbocromene,[5]; 314 vs. 130,approximately 3 times
same,Saturation of the venous blood of coronary sinus with oxygen,[5]; in vivo,lastingly increase saturation of the venous blood of coronary sinus with oxygen
same,Therapeutical index,[5]; in vivo,314
same,Mutagenous activity,salmoneallae,does not have mutagenous activity
